This passage reports IC50 results from patent US20250353830A1, “NOVEL COMPOUNDS” (Hoffmann-La Roche Inc., priority 2022, published 2025).

Assay [1] deals with T1, NLRP3 (Homo sapiens, UniProt Q96P20). The assay is described as follows: THP-1 cells pyroptosis assay (LPS priming, nigericin, resazurin read-out). Type of assay: cell-based. Set-up: Seed THP-1 cells (25,000 cells/well) containing 1.0 μg/ml LPS; host or cells: THP-1 cells, LPS-primed, nigericin-stimulated. To be noted: 1 μg/ml LPS, 3 hours compound, 5 μM nigericin 1 hr. The protocol: THP-1 cells (ATCC #TIB-202) were grown in RPMI containing L-glutamine (Gibco #11835) supplemented with 1 mM sodium pyruvate (Sigma #S8636) and penicillin (100 units/ml)/streptomycin (0.1 mg/ml) (Sigma #P4333) in 10% Fetal Bovine Serum (FBS) (Sigma #F0804). The cells were routinely passaged and grown to confluency (˜10^6 cells/ml). On the day of the experiment, THP-1 cells were harvested and resuspended into RPMI medium (without FBS). The cells were then counted and viability (>90%) checked by Trypan blue (Sigma #T8154). Appropriate dilutions were made to give a concentration of 625,000 cells/ml. To this diluted cell solution was added LPS (Sigma #L4524) to give a 1 μg/ml Final Assay Concentration (FAC). 40 μl of the final preparation was aliquoted into each well of a 96-well plate. The plate thus prepared was used for compound screening.
T1 sequence (Q96P20 whole entry): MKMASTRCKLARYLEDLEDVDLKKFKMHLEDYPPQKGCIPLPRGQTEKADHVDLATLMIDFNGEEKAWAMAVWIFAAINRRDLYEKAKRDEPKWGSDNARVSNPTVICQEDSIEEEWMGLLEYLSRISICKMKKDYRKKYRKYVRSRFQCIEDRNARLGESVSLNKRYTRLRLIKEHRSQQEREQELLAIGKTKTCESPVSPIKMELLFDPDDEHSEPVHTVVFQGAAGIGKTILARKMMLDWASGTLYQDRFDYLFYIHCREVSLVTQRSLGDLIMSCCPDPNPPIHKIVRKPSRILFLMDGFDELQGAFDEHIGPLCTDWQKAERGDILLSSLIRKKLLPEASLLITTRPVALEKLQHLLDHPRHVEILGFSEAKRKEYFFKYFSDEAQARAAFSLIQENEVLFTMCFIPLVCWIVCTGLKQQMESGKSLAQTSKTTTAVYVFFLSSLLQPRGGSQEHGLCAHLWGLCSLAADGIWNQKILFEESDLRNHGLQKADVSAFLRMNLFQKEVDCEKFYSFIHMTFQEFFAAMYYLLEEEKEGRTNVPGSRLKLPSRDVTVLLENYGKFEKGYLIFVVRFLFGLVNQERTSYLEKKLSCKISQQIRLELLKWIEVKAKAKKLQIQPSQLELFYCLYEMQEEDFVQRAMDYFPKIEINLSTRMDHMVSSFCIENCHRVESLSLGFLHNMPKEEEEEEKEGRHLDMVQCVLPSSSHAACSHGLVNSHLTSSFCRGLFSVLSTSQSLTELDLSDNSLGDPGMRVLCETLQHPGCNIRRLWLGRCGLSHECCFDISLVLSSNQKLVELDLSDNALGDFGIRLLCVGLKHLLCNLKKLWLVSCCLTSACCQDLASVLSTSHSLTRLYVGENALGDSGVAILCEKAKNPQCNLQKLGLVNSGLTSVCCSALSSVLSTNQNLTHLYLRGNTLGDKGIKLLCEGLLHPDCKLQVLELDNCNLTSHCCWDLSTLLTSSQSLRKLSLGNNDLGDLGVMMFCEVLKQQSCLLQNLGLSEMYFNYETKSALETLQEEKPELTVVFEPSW
The following method step-by-step assay was followed for compound screening. • 1. Seed THP-1 cells (25,000 cells/well) containing 1.0 μg/ml LPS in 40 μl of RPMI medium (without FBS) in 96-well, black walled, clear bottom cell culture plates coated with poly-D-lysine (VWR #734-0317) • 2. Add 5 μl compound (8 points half-log dilution, with 10 μM top dose) or vehicle (DMSO 0.1% FAC) to the appropriate wells • 3. Incubate for 3 hours at 37° C., 5% CO2 • 4. Add 5 μl nigericin (Sigma #N7143) (FAC 5 μM) to all wells • 5. Incubate for 1 hr at 37° C., 5% CO2 • 6. At the end of the incubation period, spin plates at 300×g for 3 mins and remove supernatant • 7. Then add […] of resazurin (Sigma #R7017) (FAC 100 μM resazurin in RPMI medium without FBS) and incubate plates for a further 1-2 hours at 37° C. and 5% CO2 • 8. Plates were read in an Envision reader at Ex 560 nm and Em 590 nm • 9. IC50 data is fitted to a non-linear regression equation (log inhibitor vs response-variable slope 4-parameters)

The target in assay [2] is T1, NLRP3. The experiment in a line: Human whole blood IL-1β release assay (LPS, nigericin, AlphaLisa). The format is cell-based. Set-up: Plate out 80 μl of whole blood containing 1 μg/ml of LPS; from tissue; host or cells: human whole blood from healthy donors, LPS-primed, nigericin-stimulated. To be noted: 1 μg/ml LPS, 3 hours compound, 10 μM nigericin 1 hr, IL-1β in supernatant. The protocol: For systemic delivery, the ability to inhibit NLRP3 when the compounds are present within the bloodstream is of great importance. For this reason, the NLRP3 inhibitory activity of a number of compounds in human whole blood was investigated in accordance with the following protocol.
Human whole blood in Li-heparin tubes was obtained from healthy donors from a volunteer donor panel. • 1. Plate out 80 μl of whole blood containing 1 μg/ml of LPS in 96-well, clear bottom cell culture plate (Corning #3585) • 2. Add 10 μl compound (8 points half-log dilution with 10 μM top dose) or vehicle (DMSO 0.1% FAC) to the appropriate wells • 3. Incubate for 3 hours at 37° C., 5% CO2 • 4. Add 10 μl nigericin (Sigma #N7143) (10 μM FAC) to all wells • 5. Incubate for 1 hr at 37° C., 5% CO2 • 6. At the end of the incubation period, spin plates at 300×g for 5 mins to pellet cells and remove 20 μl of supernatant and add to 96-well v-bottom plates for IL-1β analysis (note: these plates containing the supernatants can be stored at −80° C. to be analysed at a later date) • 7. IL-1β was measured according to the manufacturer protocol (Perkin Elmer-AlphaLisa IL-1 Kit AL220F-5000) • 8. IC50 data is fitted to a non-linear regression equation (log inhibitor vs response-variable slope 4-parameters)

A word on the IC50: it is the concentration at which inhibition is half-maximal. For the compound `CCN1CCC[C@@H](Nc2cc(C)c(-c3ccc4cc[nH]c4c3F)nn2)C1` [Example 10, N-[(3R)-1-ethyl-3-piperidyl]-6-(7-fluoro-1H-indol-6-yl)-5-methyl-pyridazin-3-amine], the IC50 was found to be 22.6 nM at NLRP3 [1] and 45.1 nM at NLRP3 [2].
The matching figures for `CCN1CCC[C@@H](Nc2nnc(-c3ccc4c(F)c[nH]c4c3)c(C)n2)C1` [Example 14, N-[(3R)-1-Ethyl-3-piperidyl]-6-(3-fluoro-1H-indol-6-yl)-5-methyl-1,2,4-triazin-3-amine]: 55.9 nM and 43.2 nM.
On to `CCN1CCC[C@@H](Nc2cc(C)c(-c3ccc4c(C#N)c[nH]c4c3)nn2)C1` [Example 7, 6-[6-[[(3R)-1-Ethyl-3-piperidyl]amino]-4-methyl-pyridazin-3-yl]-1H-indole-3-carbonitrile], for which the IC50 at NLRP3 [1] came out at 133 nM.
Consider `CCN1CCC[C@@H](Nc2cc(C)c(-c3ccc4c(C)c[nH]c4c3)nn2)C1` [Example 4, N-[(3R)-1-Ethyl-3-piperidyl]-5-methyl-6-(3-methyl-1H-indol-6-yl)pyridazin-3-amine], for which the results for the IC50 at NLRP3 [1] and against NLRP3 [2] were 43.7 nM and 234 nM, respectively.
In the case of `CCN1CCC[C@@H](Nc2cc(C)c(-c3cc4[nH]ccc4cc3F)nn2)C1` [Example 3, N-[(3R)-1-ethyl-3-piperidyl]-6-(5-fluoro-1H-indol-6-yl)-5-methyl-pyridazin-3-amine], the IC50 is 9.2 nM on NLRP3 [1] and 48.6 nM against NLRP3 [2].
Take `CCN1CCC[C@@H](Nc2ccc(-c3cc4[nH]ccc4cc3C)nn2)C1` [Example 16, N-[(3R)-1-Ethyl-3-piperidyl]-6-(5-methyl-1H-indol-6-yl)pyridazin-3-amine]: the IC50 turned out to be 21 nM on NLRP3 [1] and 113 nM against NLRP3 [2].
As to `Cc1cc(N2CC[C@H]3CCN(C)C[C@H]32)nnc1-c1ccc2c(F)c[nH]c2c1` [Example 18B, (3aR,7aS)-1-[6-(3-fluoro-1H-indol-6-yl)-5-methyl-pyridazin-3-yl]-6-methyl-3,3a,4,5,7,7a-hexahydro-2H-pyrrolo[2,3-c]pyridine], the IC50 was found to be 37 nM at NLRP3 [1] and 179 nM against NLRP3 [2].
The matching figures for `Cc1cc(N2CC[C@@H]3CCN(C)C[C@@H]32)nnc1-c1ccc2c(F)c[nH]c2c1` (single isomer, unassigned) [Example 18A]: 2 nM and 31 nM.
The matching figures for `CCN1CCC[C@@H](Nc2nnc(-c3ccc4cc[nH]c4c3)c3c2cnn3C)C1` [Example 15, N-[(3R)-1-Ethyl-3-piperidyl]-7-(1H-indol-6-yl)-1-methyl-pyrazolo[3,4-d]pyridazin-4-amine]: 27 nM and 52 nM.
The matching figures for `CCN1CCC[C@@H](Nc2cc(C)c(-c3ccc4cc(C)[nH]c4c3)nn2)C1` [Example 6, N-[(3R)-1-Ethyl-3-piperidyl]-5-methyl-6-(2-methyl-1H-indol-6-yl)pyridazin-3-amine]: 12.3 nM and 56.2 nM.
Take `CCN1CCC[C@@H](Nc2cc(C(F)(F)F)c(-c3ccc4c(F)c[nH]c4c3)nn2)C1` [Example 11, N-[(3R)-1-Ethyl-3-piperidyl]-6-(3-fluoro-1H-indol-6-yl)-5-(trifluoromethyl)pyridazin-3-amine]: the IC50 worked out at 5.1 nM on NLRP3 [1] and 44.1 nM on NLRP3 [2].
The matching figures for `CCc1cc(N[C@@H]2CCCN(CC)C2)nnc1-c1ccc2c(F)c[nH]c2c1` [Example 12, 5-Ethyl-N-[(3R)-1-ethyl-3-piperidyl]-6-(3-fluoro-1H-indol-6-yl)pyridazin-3-amine]: 18.3 nM and 25.4 nM.
The matching figures for `Cc1cc(N[C@@H]2CCCN(C)C2)nnc1-c1ccc2c(F)c[nH]c2c1` [Example 9, 6-(3-Fluoro-1H-indol-6-yl)-5-methyl-N-[(3R)-1-methyl-3-piperidyl]pyridazin-3-amine]: 4.9 nM and 26.5 nM.
The like results for `CCN1CCC[C@@H](Nc2cc(C)c(-c3ccc4c(F)c[nH]c4c3)nn2)C1` [Example 2, N-[(3R)-1-Ethyl-3-piperidyl]-6-(3-fluoro-1H-indol-6-yl)-5-methyl-pyridazin-3-amine] were, in that order, 2.7 nM and 9.5 nM.
Take `CCN1CCC[C@@H](Nc2nnc(-c3ccc4cc[nH]c4c3)c(C)n2)C1` [Example 13, N-[(3R)-1-Ethyl-3-piperidyl]-6-(1H-indol-6-yl)-5-methyl-1,2,4-triazin-3-amine]: the figures for the IC50 on NLRP3 [1] and against NLRP3 [2] were 47.3 nM and 28.6 nM, respectively.
In the case of `Cc1cc(N[C@H]2C[C@@](C)(O)C2)nnc1-c1ccc2c(F)c[nH]c2c1` [Example 17, 3-[[6-(3-Fluoro-1H-indol-6-yl)-5-methyl-pyridazin-3-yl]amino]-1-methyl-cyclobutanol], the IC50 at NLRP3 [1] turned out to be 493 nM.
Same read-out and setting: the value for `CCN1CCC[C@@H](Nc2cc(C)c(-c3ccc4cc(C#N)[nH]c4c3)nn2)C1` [Example 8, 6-[6-[[(3R)-1-Ethyl-3-piperidyl]amino]-4-methyl-pyridazin-3-yl]-1H-indole-2-carbonitrile] was 123 nM.
Consider `CCN1CCC[C@@H](Nc2cc(C)c(-c3ccc4cc[nH]c4c3)nn2)C1` [Example 1, N-[(3R)-1-Ethyl-3-piperidyl]-6-(1H-indol-6-yl)-5-methyl-pyridazin-3-amine], for which the IC50 at NLRP3 [1] worked out at 5.1 nM; on NLRP3 [2], 17.1 nM.
